Source: EP1150982B1, “PURINE INHIBITORS OF CYCLIN DEPENDENT KINASE 2 AND IkB-alpha” (CV THERAPEUTICS, INC., priority 1999, dated 2000)
In brackets after ≈: the same amount, converted by molar mass. Where two headings read alike, the source gives them in different places. Values belong to the compound of their own block, whether it stands above or below them.

How the values were obtained:
[1] = system: P388 - mouse lymphoid neoplasm; test: Cell proliferation assay, P388; assay type: cell-based; details: P388 cells, read-out: IC50 (µg/ml) for Inhibition of Cell Proliferation P 388
[2] = system: Pancl human pancreatic adenocarcinoma; test: Cell proliferation assay, Pancl; assay type: cell-based; details: Pancl cells, read-out: IC50 (µg/ml) for Inhibition of Cell Proliferation Panel
Experimental: (§1) Early passage rat aortic smooth muscle cells (CV Therapeutics Cell repository) were seeded in 48 well dishes (Falcon, […]) at a density of 20,000 cells/ml of DME containing 5% heat inactivated bovine serum. The cells were incubated in a standard tissue culture incubator for 48 hr. The medium was aspirated and the wells were replenished with 0.2 ml of fresh medium. […]
(§2) Similar assays were performed using the following cell lines: P388 - mouse lymphoid neoplasm; L1210 - mouse lymphocytic leukemia; Caco2 human colon adenocarcinoma; MCF7 human breast adenocarcinoma; PupVSMC rat neonatal aortic smooth muscle cells; Ovcar human ovarian Carcinoma; Pancl human pancreatic adenocarcinoma; and HUVEC human umbilical cord endothelial cells.

[3] = system: Ovcar human ovarian Carcinoma; test: Cell proliferation assay, Ovcar; assay type: cell-based; details: Ovcar cells, read-out: IC50 (µg/ml) for Inhibition of Cell Proliferation OvC ar
Experimental: as §1, §2

[4] = system: PupVSMC rat neonatal aortic smooth muscle cells; test: Cell proliferation assay, PupVSMC; assay type: cell-based
Experimental: (§3) Early passage rat aortic smooth muscle cells (CV Therapeutics Cell repository) were seeded in 48 well dishes (Falcon, […]) at a density of 20,000 cells/ml of DME containing 5% heat inactivated bovine serum. The cells were incubated in a standard tissue culture incubator for 48 hr. The medium was aspirated and the wells were replenished with 0.2 ml of fresh medium. Compounds of this invention were added at concentrations ranging from 100 to 0.37 µg/ml. After 48 hr incubation, the medium was aspirated and the cultures were treated with 0.2 ml of saline and 0.25 µl of phenazine methosulfate solution containing MTS (Cell Titer 96® Aqueous Non-radioactive cell proliferation assay kit, Catalog # G 5430, Promega, 2800 Woods Hollow Road, Madison, WI 53711-5399). […]
as §2

[5] = system: rat aortic smooth muscle cells; test: tissue or blood; assay type: cell-based; details: read-out: IC50 (µg/mL) cells
Experimental: as §1

IκB-α kinase = IκB-α kinase assay (filter assay of affinity enriched IκB-α kinase from LPS-activated HUVEC lysate); assay type: biochemical, human; details: Table 11, Enzyme Activity of Selected Compounds
[6] = system: neointima formation following balloon angioplasty in the rat carotid artery; test: Neointima formation following balloon angioplasty, rat carotid artery model; assay type: in vivo; details: 14 days recovery
Text: In this example, the left common carotid arteries of adult male rats (n=10 per experimental group) were surgically injured using a Fogarty arterial embolectomy catheter. Immediately after injury, the common carotid artery was bisected with a vascular clamp, thereby establishing an untreated and treated segment. A drug delivery catheter was then inserted into the distal half of the common carotid. After drug delivery, the catheter was removed and excess drug was washed out by removing the vascular clamp and re-establishing blood flow before closing the artery. […] The harvested tissue was sectioned and the neointimal area was digitized and measured with a computer planimetry system.

CDK2 = CDK2 (Homo sapiens, UniProt P24941); test: biochemical; details: concentration required to inhibit CDK2 activity by 50%; 30 µM ATP, histone H1, 30°C for 30 min; read-out: IC50 (µg/mL) enzyme (converted)
Experimental: Compounds of this invention were assayed to determine their CDK2 inhibitory activity. The assay system (total volume of 50 µl) contained 50 mM Tris-HCl, pH 7.4, 10 mM MgCl2, 5 mM DTT, 1 µg of histone H1, 30 µM ATP (1 µCi of gamma^32P labeled ATP), 10 µg of BSA and 1 ng of purified CDK2. After incubation at 30°C for 30 min, the reaction was terminated by the addition of 10 µl of 10% TCA and the samples were blotted onto nitrocellulose filters. These filters were washed extensively in 10% TCA and assayed for radioactivity. Blanks contained no enzyme. […] After incubation at 30 min., the assay tubes were processed as above.

[7] = system: Caco2 human colon adenocarcinoma; test: cells; assay type: cell-based; details: Caco-2, read-out: IC50 (µg/ml) for Inhibition of Cell Proliferation Caco 2
Experimental: as §3, §2

[8] = system: L1210 - mouse lymphocytic leukemia; test: cells; assay type: cell-based; details: read-out: IC50 (µg/ml) for Inhibition of Cell Proliferation L 120
Experimental: as §3, §2

[9] = system: MCF7 human breast adenocarcinoma; test: Cell proliferation assay, MCF7; assay type: cell-based; details: MCF7 cells, read-out: IC50 (µg/ml) for Inhibition of Cell Proliferation MCF 7
Experimental: as §1, §2

[10] = system: mammalian cells in culture; details: literature; cited from earlier work
[11] = inhibitory activity against the cell line, Table 9, unit inferred, read-out: PupVSMC

- IC50 [1]: > 5 µg/mL
- IC50 [2]: 5.5 µg/mL (≈ 14.4 µM)
- IC50 [3]: 4 µg/mL (≈ 10.5 µM)
Structure (SMILES): COc1ccc(CNc2nc(N3CCOCC3)nc3c2ncn3C(C)C)cc1

Structure (SMILES): CC(C)n1cnc2c(NCc3ccc(Cl)cc3)nc(N(CCN)CCO)nc21 [2-[(2-aminoethyl)(6-{[(4-chlorophenyl)methyl]amino}-9-(methylethyl)purin-2-yl)amino]ethan-1-ol]
- IC50 [4, 11]: 0.3 µg/mL (≈ 0.743 µM)

Structure (SMILES): CC(C)n1cnc2c(NCc3ccc(Cl)cc3)nc(N(CCN)CCO)nc21
- IC50 ([5]; concentration required to inhibit cell proliferation by 50%, rat aortic smooth muscle cells, 48 hr incubation, MTS): 0.2 µg/mL (≈ 0.495 µM)

Structure (SMILES): COc1cccc(-c2ccc(CNc3nc(N(CCO)CCO)nc4c3ncn4C(C)C)cc2)c1
- IC50 (IκB-α kinase): > 10 µM

Structure (SMILES): COc1ccc(CNc2nc(N(CCO)CCO)nc3c2ncn3C(C)C)cc1 [Compound 3, 2-diethanolamino-6-(4-methoxybenzylamino)-9-isopropylarine]
- IC50 [4, 11]: 0.4 µg/mL (≈ 0.999 µM)
- reduced the neointimal area ([6]; Figure 1, acute local delivery, saline vehicle alone 6%): about 88%

Structure (SMILES): COc1ccc(-c2ccc(CNc3nc(N(CCO)CCO)nc4c3ncn4C(C)C)cc2)cc1
- IC50 (IκB-α kinase): 11 µM

- IC50 (CDK2): 203 µM
Structure (SMILES): Clc1ccc(COc2nc(Cl)nc3[nH]cnc23)cc1 [4-chlorobenzyloxy; H; C1]

Structure (SMILES): CC(C)n1cnc2c(NCc3ccc(Cl)cc3)nc(N(CCO)CCO)nc21 [2-[(2-hydroxyethyl)(6-{[(4-chlorophenyl)methyl]amino}-9-(methylethyl)purin-2-yl)amino]ethan-1-ol]
- IC50 [4, 11]: 0.3 µg/mL (≈ 0.741 µM)

- IC50 (CDK2): > 168 µM
Structure (SMILES): COc1ccc(CNc2nc(Cl)nc3c2ncn3C(F)(F)F)cc1

- IC50 (CDK2): 1.28 µM
Structure (SMILES): CC(C)n1cnc2c(NCc3ccc(C(F)(F)F)cc3)nc(N(CCO)CCO)nc21

- IC50 (CDK2): 5 µM
Structure (SMILES): CC(C)n1cnc2c(NCc3ccc(Cl)cc3)nc(NCCNCCO)nc21

- IC50 (CDK2): > 137 µM
Structure (SMILES): COC(=O)c1ccc(Cn2cnc3c(NCc4ccc(OC)cc4)nc(Cl)nc32)cc1

Structure (SMILES): CC(C)n1cnc2c(Nc3ccc(-c4ccccc4)cc3)nc(N(CCO)CCO)nc21 [Compound 6, 2-diethanolamino-6-(4-phenylanilino)-9-isopropylpurine]
- IC50 [1]: 1 µg/mL (≈ 2.31 µM)
- IC50 [7]: 0.5 µg/mL (≈ 1.16 µM)
- IC50 [8]: 4 µg/mL (≈ 9.25 µM)
- IC50 [9]: 4 µg/mL (≈ 9.25 µM)
- IC50 [2]: 4 µg/mL (≈ 9.25 µM)
- IC50 [3]: 7 µg/mL (≈ 16.2 µM)
- IC50 ([4]; VSMC, PupVSMC cells, Table 8, read-out: IC50 (µg/ml) for Inhibition of Cell Proliferation Pup VS MC): 1 µg/mL (≈ 2.31 µM)

Structure (SMILES): CC(N)CNc1nc(NCc2ccc(Cl)cc2)c2ncn(C(C)C)c2n1 (centres unmarked) [{2-[(2-aminopropyl)amino]-9-(methylethyl)purin-6-yl}[(4-chlorophenyl)methyl]amine]
- IC50 [4, 11]: 0.1 µg/mL (≈ 0.267 µM)

Structure (SMILES): CSc1ccc(Nc2nc(N(CCO)CCO)nc3c2ncn3C(C)C)cc1 [Compound 6A, 2-diethanolamine-6-(4-methylmercapto) anilino-9-isopropylpurine]
- IC50 (IκB-α kinase): 12.4 µM

- IC50 (CDK2): 207 µM
Structure (SMILES): COc1ccc(CNc2nc(Cl)nc3[nH]cnc23)cc1 [4-methoxybenzylamino; H; C1]

Structure (SMILES): COc1ccc(CNc2nc(N(CCO)CCO)nc3c2ncn3C(C)C)cc1
- IC50 ([5]; Rattus norvegicus, 48 h): 2.1 µg/mL (≈ 5.24 µM)

Structure (SMILES): CCN(CC)c1nc(NCc2ccc(-c3ccccc3)cc2)c2ncn(C(C)C)c2n1
- IC50 (IκB-α kinase): > 2.4 µM

Structure (SMILES): CC(C)n1cnc2c(Nc3ccc(Br)cc3)nc(N(CCO)CCO)nc21
- IC50 (IκB-α kinase): 14 µM

- IC50 (CDK2): 194 µM
Structure (SMILES): Cn1cnc2c(OCc3ccc(Cl)cc3)nc(Cl)nc21 [4-chlorobenzyloxy; Me; C1]

Structure (SMILES): CC(C)n1cnc2c(Nc3cccc(-c4ccc(C#N)cc4)c3)nc(N(CCO)CCO)nc21
- IC50 (IκB-α kinase): 2.2 µM

- IC50 (CDK2): 130 µM
Structure (SMILES): CC(C)Cn1cnc2c(NCc3ccc(C(F)(F)F)cc3)nc(N(CCO)CCO)nc21

Structure (SMILES): Cn1cnc2c(NCc3ccccc3)nc(NCCO)nc21 [olomoucine, 2-(hydroxyethylamino)-6-benzylamino-9-methylpurine]
- inhibits cell proliferation at an approximate concentration [10]: ~50 µg/mL

Structure (SMILES): CC(C)n1cnc2c(NCc3ccc(-c4ccccc4)cc3)nc(N(CCO)CCO)nc21 [2-diethanolamino-6-(4-phenylbenzylamino)-9-isopropyl purine]
- IC50 [1]: < 1 µg/mL
- IC50 [2]: 1.3 µg/mL (≈ 2.91 µM)
- IC50 (IκB-α kinase): 1.1 µM

- IC50 (CDK2): 22.2 µM
Structure (SMILES): CC(C)n1cnc2c(NCc3ccc(S(N)(=O)=O)cc3)nc(NCCN)nc21

Structure (SMILES): CC(C)n1cnc2c(NCc3ccc(Cl)cc3)nc(NCCN)nc21 [{2-[(2-aminoethyl)amino]-9-(methylethyl)purin-6-yl}[(4-chlorophenyl)methyl]amine]
- IC50 [4, 11]: 0.1 µg/mL (≈ 0.278 µM)
- reducing the neointimal area ([6]; acute local delivery, dose of 5 mg/mL, saline alone 6%): about 90%

Structure (SMILES): CC(C)n1cnc2c(NCc3ccc(-c4ccccc4)cc3)nc(NCCO)nc21
- IC50 (IκB-α kinase): 2.5 µM

- IC50 (CDK2): 173 µM
Structure (SMILES): COc1ccc(CNc2nc(Cl)nc3c2ncn3CC(C)C)cc1 [4-methoxybenzylamino; 2-methylpropyl; C1]

Structure (SMILES): CC(C)n1cnc2c(NCc3ccc(-c4ccccn4)cc3)nc(N(CCO)CCO)nc21
- IC50 (IκB-α kinase): 4.5 µM
